# Species on record: Rattus norvegicus
# Assay: Open TG-GATES - Regimen: Daily Repeat
# Assay type: toxicity, organism-based, Sprague-Dawley
# Design: regimen Daily Repeat, gender Male, age 6 weeks
# Conditions: in vivo, po, 150 mg/kg, route gavage, dose level High; for APTT / Bas / Eos / Fbg / Hb / Ht / Lym / MCH / MCHC / MCV / Mono / Neu / PT / Plat / RBC / Ret / WBC: tissue Blood; for KIDNEY_L / KIDNEY_R / KIDNEY_TOTAL: tissue Kidney; for LIVER: tissue Liver; for A/G / ALP / ALT / AST / BUN / CRE / Ca / Cl / DBIL / GLC / IP / K / LDH / Na / PL / RALB / TBIL / TC / TG / TP / gamma-GTP: tissue Plasma
smiles,measurement,setting,value
O=c1ccc2ccccc2o1 [COUMARIN],TERMINAL_BW,"72 h, time 3 day",168.7 g
same,APTT,"72 h, time 3 day",14.2 s
same,Bas,"72 h, time 3 day",0%
same,Eos,"72 h, time 3 day",1%
same,Fbg,"72 h, time 3 day",193.7 mg/dL
same,Hb,"72 h, time 3 day",14.6 g/dL
same,Ht,"72 h, time 3 day",43.8%
same,Lym,"72 h, time 3 day",80.8%
same,MCH,"72 h, time 3 day",21 pg
same,MCHC,"72 h, time 3 day",33.2%
same,MCV,"72 h, time 3 day",63.2 fL
same,Mono,"72 h, time 3 day",4.8%
same,Neu,"72 h, time 3 day",13.6%
same,PT,"72 h, time 3 day",11.5 s
same,Plat,"72 h, time 3 day",117.7 x10_4/uL
same,RBC,"72 h, time 3 day",693.6 x10_4/ul
same,Ret,"72 h, time 3 day",3.5%
same,WBC,"72 h, time 3 day",97.2 x10_2/uL
same,KIDNEY_L,"72 h, time 3 day",0.8 g
same,KIDNEY_R,"72 h, time 3 day",0.8 g
same,KIDNEY_TOTAL,"72 h, time 3 day",1.6 g
same,LIVER,"72 h, time 3 day",9.5 g
same,A/G,"72 h, time 3 day",2.2
same,ALP,"72 h, time 3 day",1111.8 IU/L
same,ALT,"72 h, time 3 day",54.6 IU/L
same,AST,"72 h, time 3 day",72 IU/L
same,BUN,"72 h, time 3 day",16 mg/dL
same,CRE,"72 h, time 3 day",0.5 mg/dL
same,Ca,"72 h, time 3 day",10.9 mg/dL
same,Cl,"72 h, time 3 day",106 meq/L
same,DBIL,"72 h, time 3 day",0.072 mg/dL
same,GLC,"72 h, time 3 day",178.2 mg/dL
same,IP,"72 h, time 3 day",8 mg/dL
same,K,"72 h, time 3 day",4.8 meq/L
same,LDH,"72 h, time 3 day",162 IU/L
same,Na,"72 h, time 3 day",139.6 meq/L
same,PL,"72 h, time 3 day",168 mg/dL
same,RALB,"72 h, time 3 day",3.8 g/dL
same,TBIL,"72 h, time 3 day",0.3 mg/dL
same,TC,"72 h, time 3 day",95.2 mg/dL
same,TG,"72 h, time 3 day",30.2 mg/dL
same,TP,"72 h, time 3 day",5.6 g/dL
same,gamma-GTP,"72 h, time 3 day",1.8 IU/L
same,TERMINAL_BW,"[…], time 7 day",202.2 g
same,TERMINAL_BW,"[…], time 14 day",250.7 g
same,TERMINAL_BW,"[…], time 28 day",305.5 g
same,APTT,"[…], time 7 day",16.5 s
same,Bas,"[…], time 7 day",0%
same,Eos,"[…], time 7 day",1%
same,Fbg,"[…], time 7 day",236 mg/dL
same,Hb,"[…], time 7 day",13.3 g/dL
same,Ht,"[…], time 7 day",40.2%
same,Lym,"[…], time 7 day",81.2%
same,MCH,"[…], time 7 day",20.5 pg
same,MCHC,"[…], time 7 day",33%
same,MCV,"[…], time 7 day",62.2 fL
same,Mono,"[…], time 7 day",3.6%
same,Neu,"[…], time 7 day",14.2%
same,PT,"[…], time 7 day",11.5 s
same,Plat,"[…], time 7 day",121.9 x10_4/uL
same,RBC,"[…], time 7 day",646.6 x10_4/ul
same,Ret,"[…], time 7 day",5.4%
same,WBC,"[…], time 7 day",152.2 x10_2/uL
same,APTT,"[…], time 14 day",17.3 s
same,Bas,"[…], time 14 day",0%
same,Eos,"[…], time 14 day",1%
same,Fbg,"[…], time 14 day",238 mg/dL
same,Hb,"[…], time 14 day",13.5 g/dL
same,Ht,"[…], time 14 day",40.8%
same,Lym,"[…], time 14 day",77.6%
same,MCH,"[…], time 14 day",20 pg
same,MCHC,"[…], time 14 day",33.1%
same,MCV,"[…], time 14 day",60.5 fL
same,Mono,"[…], time 14 day",7.8%
same,Neu,"[…], time 14 day",13.8%
same,PT,"[…], time 14 day",11.4 s
same,Plat,"[…], time 14 day",129.9 x10_4/uL
same,RBC,"[…], time 14 day",674.8 x10_4/ul
same,Ret,"[…], time 14 day",5.1%
same,WBC,"[…], time 14 day",131.3 x10_2/uL
same,APTT,"[…], time 28 day",16.9 s
same,Bas,"[…], time 28 day",0%
same,Eos,"[…], time 28 day",1.2%
same,Fbg,"[…], time 28 day",229.8 mg/dL
same,Hb,"[…], time 28 day",14.7 g/dL
same,Ht,"[…], time 28 day",44.2%
same,Lym,"[…], time 28 day",79.4%
same,MCH,"[…], time 28 day",18.4 pg
same,MCHC,"[…], time 28 day",33.2%
same,MCV,"[…], time 28 day",55.3 fL
same,Mono,"[…], time 28 day",5.4%
same,Neu,"[…], time 28 day",14.2%
same,PT,"[…], time 28 day",11.4 s
same,Plat,"[…], time 28 day",120.2 x10_4/uL
same,RBC,"[…], time 28 day",800.8 x10_4/ul
same,Ret,"[…], time 28 day",2.9%
same,WBC,"[…], time 28 day",123.8 x10_2/uL
same,KIDNEY_L,"[…], time 7 day",0.9 g
same,KIDNEY_R,"[…], time 7 day",0.9 g
same,KIDNEY_TOTAL,"[…], time 7 day",1.8 g
same,KIDNEY_L,"[…], time 14 day",1.1 g
same,KIDNEY_R,"[…], time 14 day",1.1 g
same,KIDNEY_TOTAL,"[…], time 14 day",2.2 g
same,KIDNEY_L,"[…], time 28 day",1.2 g
same,KIDNEY_R,"[…], time 28 day",1.2 g
same,KIDNEY_TOTAL,"[…], time 28 day",2.4 g
same,LIVER,"[…], time 7 day",11.5 g
same,LIVER,"[…], time 14 day",14.4 g
same,LIVER,"[…], time 28 day",16.2 g
same,A/G,"[…], time 7 day",2
same,ALP,"[…], time 7 day",807 IU/L
same,ALT,"[…], time 7 day",43.8 IU/L
same,AST,"[…], time 7 day",54.4 IU/L
same,BUN,"[…], time 7 day",13 mg/dL
same,CRE,"[…], time 7 day",0.6 mg/dL
same,Ca,"[…], time 7 day",10.9 mg/dL
same,Cl,"[…], time 7 day",104.2 meq/L
same,DBIL,"[…], time 7 day",0.058 mg/dL
same,GLC,"[…], time 7 day",180.2 mg/dL
same,IP,"[…], time 7 day",7.2 mg/dL
same,K,"[…], time 7 day",4.9 meq/L
same,LDH,"[…], time 7 day",181 IU/L
same,Na,"[…], time 7 day",139.2 meq/L
same,PL,"[…], time 7 day",182.2 mg/dL
same,RALB,"[…], time 7 day",4.1 g/dL
same,TBIL,"[…], time 7 day",0.2 mg/dL
same,TC,"[…], time 7 day",101.4 mg/dL
same,TG,"[…], time 7 day",33.4 mg/dL
same,TP,"[…], time 7 day",6.2 g/dL
same,gamma-GTP,"[…], time 7 day",1.4 IU/L
same,A/G,"[…], time 14 day",1.9
same,ALP,"[…], time 14 day",789 IU/L
same,ALT,"[…], time 14 day",52.8 IU/L
same,AST,"[…], time 14 day",62.8 IU/L
same,BUN,"[…], time 14 day",16.8 mg/dL
same,CRE,"[…], time 14 day",0.6 mg/dL
same,Ca,"[…], time 14 day",11 mg/dL
same,Cl,"[…], time 14 day",106.4 meq/L
same,DBIL,"[…], time 14 day",0.072 mg/dL
same,GLC,"[…], time 14 day",181 mg/dL
same,IP,"[…], time 14 day",6.8 mg/dL
same,K,"[…], time 14 day",4.9 meq/L
same,LDH,"[…], time 14 day",188 IU/L
same,Na,"[…], time 14 day",139.8 meq/L
same,PL,"[…], time 14 day",198.6 mg/dL
same,RALB,"[…], time 14 day",4 g/dL
same,TBIL,"[…], time 14 day",0.2 mg/dL
same,TC,"[…], time 14 day",106.4 mg/dL
same,TG,"[…], time 14 day",49.4 mg/dL
same,TP,"[…], time 14 day",6.2 g/dL
same,gamma-GTP,"[…], time 14 day",1.2 IU/L
same,A/G,"[…], time 28 day",1.7
same,ALP,"[…], time 28 day",689.6 IU/L
same,ALT,"[…], time 28 day",67.2 IU/L
same,AST,"[…], time 28 day",63 IU/L
same,BUN,"[…], time 28 day",19.6 mg/dL
same,CRE,"[…], time 28 day",0.6 mg/dL
same,Ca,"[…], time 28 day",11.2 mg/dL
same,Cl,"[…], time 28 day",106.6 meq/L
same,DBIL,"[…], time 28 day",0.046 mg/dL
same,GLC,"[…], time 28 day",177.6 mg/dL
same,IP,"[…], time 28 day",6.8 mg/dL
same,K,"[…], time 28 day",4.6 meq/L
same,LDH,"[…], time 28 day",147.2 IU/L
same,Na,"[…], time 28 day",139.2 meq/L
same,PL,"[…], time 28 day",222.8 mg/dL
same,RALB,"[…], time 28 day",4.4 g/dL
same,TBIL,"[…], time 28 day",0.2 mg/dL
same,TC,"[…], time 28 day",121.8 mg/dL
same,TG,"[…], time 28 day",70.8 mg/dL
same,TP,"[…], time 28 day",6.9 g/dL
same,gamma-GTP,"[…], time 28 day",0.6 IU/L

# Source: ChEMBL document CHEMBL3885861, “Open TG-GATES”
